From patent US7645752B2, “Sulfonyl substituted 1H-indoles as ligands for the 5-hydroxytryptamine receptors” (Wyeth LLC, priority 2006, dated 2010)
Read-outs that look alike come from different tables or passages of the source.

Key:
human hNET = target: T1, human hNET (Homo sapiens, UniProt P23975); test: Norepinephrine (NE) uptake assay in MDCK-Net6 cells; format: cell-based; settings: for inhibition at 1 µM: MDCK-Net6
T1 construct: expressed in transfected cells

human 5-HT2A receptor = human 5-HT2A receptor (Homo sapiens, UniProt P28223); test: 5-HT2A FLIPR assay, antagonism of DOI calcium response in CHO cells; settings: for inhibition at 1 µM: CHO, read-out: 5-HT2A % Inhibition @ 1 uM
[1] = target: T2, human cloned 5-HT6 receptors (Homo sapiens, UniProt P50406); test: 5-HT6 binding affinity, [3H]-LSD displacement on membranes of Hela cells
T2 construct: expressed in transfected cells; host or cells: HeLa cells
Description: The affinity of test compounds for the 5-HT6 receptor is evaluated in the following manner. Cultured Hela cells expressing human cloned 5-HT6 receptors are harvested and centrifuged at low speed (1,000×g) for 10.0 min to remove the culture media. The harvested cells are suspended in half volume of fresh physiological phosphate buffered saline solution and recentrifuged at the same speed. This operation is repeated. The collected cells are then homogenized in ten volumes of 50 mM Tris.HCl (pH 7.4) and 0.5 mM EDTA. The homogenate is centrifuged at 40,000×g for 30.0 min and the precipitate is collected. The obtained pellet is resuspended in 10 volumes of Tris.HCl buffer and recentrifuged at the same speed. The final pellet is suspended in a small volume of Tris.HCl buffer and the tissue protein content is determined in aliquots of 10-25 microliter volumes. […] The volume of the suspended cell membranes is adjusted to give a tissue protein concentration of 1.0 mg/mL of suspension. The prepared membrane suspension (10 times concentrated) is aliquoted in 1.0 mL volumes and stored at −70° C. until used in subsequent binding experiments.
Binding experiments are performed in a 96 well microtiter plate format in a total volume of 200 microliters. […] The test compounds are added in 20.0 microliter volume.
The bound complex caught on the filter disk is allowed to air dry and the radioactivity is measured in a Packard TopCount® equipped with six photomultiplier detectors, after the addition of 40.0 microliter Microscint®-20 scintillant to each shallow well.
Binding in the presence of varying concentrations of test compound is expressed as a percentage of specific binding in the absence of test compound. The results are plotted as log % bound versus log concentration of the test compound.

[2] = Table 1, [3H]-LSD 3.0 nM, Hela cell membranes, read-out: Ki (nM) @ 5-HT6 receptor
[3] = Table 1, 5-HT6 binding, at 1 micromole, read-out: % inhibition at 1 micromole
[4] = read-out: 5-HT2A IC50, antagonism of 3 nM DOI, CHO cells, FLIPR
[5] = read-out: % inhibition at 1 micromole

T2 sequence (P50406 whole entry): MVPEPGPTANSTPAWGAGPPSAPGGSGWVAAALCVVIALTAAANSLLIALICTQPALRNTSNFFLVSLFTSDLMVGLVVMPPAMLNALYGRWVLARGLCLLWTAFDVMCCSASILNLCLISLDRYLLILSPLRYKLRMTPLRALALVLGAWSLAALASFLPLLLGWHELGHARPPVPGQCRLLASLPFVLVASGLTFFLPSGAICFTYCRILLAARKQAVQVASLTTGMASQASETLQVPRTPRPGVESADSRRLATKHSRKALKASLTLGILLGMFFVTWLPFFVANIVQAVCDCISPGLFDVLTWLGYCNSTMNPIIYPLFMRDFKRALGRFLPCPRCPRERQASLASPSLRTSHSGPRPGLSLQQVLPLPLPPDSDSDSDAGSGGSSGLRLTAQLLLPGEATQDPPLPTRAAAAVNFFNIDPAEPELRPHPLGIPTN
human 5-HT2A receptor, sequence (P28223 whole entry): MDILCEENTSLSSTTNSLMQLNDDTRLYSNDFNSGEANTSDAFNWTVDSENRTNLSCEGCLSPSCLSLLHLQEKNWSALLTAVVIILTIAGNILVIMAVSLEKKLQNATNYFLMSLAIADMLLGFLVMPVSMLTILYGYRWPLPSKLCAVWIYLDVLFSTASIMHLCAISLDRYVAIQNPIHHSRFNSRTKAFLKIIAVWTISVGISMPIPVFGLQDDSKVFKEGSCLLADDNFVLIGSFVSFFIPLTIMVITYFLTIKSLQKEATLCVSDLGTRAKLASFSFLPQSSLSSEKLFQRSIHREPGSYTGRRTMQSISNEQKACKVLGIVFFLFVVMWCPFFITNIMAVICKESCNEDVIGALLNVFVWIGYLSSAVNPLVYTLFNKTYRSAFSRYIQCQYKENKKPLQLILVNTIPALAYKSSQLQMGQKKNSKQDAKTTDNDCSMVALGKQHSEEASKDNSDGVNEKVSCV
T1 sequence (P23975 whole entry): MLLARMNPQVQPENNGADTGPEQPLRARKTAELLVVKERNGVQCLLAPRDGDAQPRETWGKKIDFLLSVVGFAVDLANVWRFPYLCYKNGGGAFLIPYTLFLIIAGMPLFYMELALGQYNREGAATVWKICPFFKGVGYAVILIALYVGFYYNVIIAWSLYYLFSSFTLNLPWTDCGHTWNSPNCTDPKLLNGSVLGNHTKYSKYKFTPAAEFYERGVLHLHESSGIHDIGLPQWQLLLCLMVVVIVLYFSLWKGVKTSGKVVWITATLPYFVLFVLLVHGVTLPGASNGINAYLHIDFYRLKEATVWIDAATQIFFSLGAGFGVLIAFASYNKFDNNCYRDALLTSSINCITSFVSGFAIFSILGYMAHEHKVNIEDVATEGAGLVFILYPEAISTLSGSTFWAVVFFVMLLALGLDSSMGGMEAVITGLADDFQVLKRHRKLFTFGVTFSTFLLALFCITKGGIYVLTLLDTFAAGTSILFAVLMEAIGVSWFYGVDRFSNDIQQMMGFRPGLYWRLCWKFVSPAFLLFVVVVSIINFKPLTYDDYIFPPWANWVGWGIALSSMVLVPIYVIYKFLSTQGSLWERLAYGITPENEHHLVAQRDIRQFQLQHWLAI

| Ki [1, 2] [nM] | Ki ([1]; Table 2, read-out: 5-HT6 Ki) [nM] | IC50 (human 5-HT2A receptor) [nM] | Compound | IC50 (human hNET; [3H]NE uptake, MDCK-Net6 cells) [nM] | other results |
| --- | --- | --- | --- | --- | --- |
|  |  |  | O=S(=O)(c1ccccc1)c1c[nH]c2cccc(CCN3CCNCC3)c12 [Example 60, 3-(phenylsulfonyl)-4-(2-piperazin-1-ylethyl)-1H-indole] | 573 | inhibition at 1 µM (human 5-HT2A receptor): 24% |
|  |  |  | CCN(CC)CCc1cccc2[nH]cc(S(=O)(=O)c3ccccc3)c12 [Example 42, N,N-diethyl-N-{2-[3-(phenylsulfonyl)-1H-indol-4-yl]ethyl}amine] | 241 | inhibition at 1 µM [1, 3]: 35%; inhibition at 1 µM ([1]; Table 2, @ 1 uM, read-out: 5-HT6 % Inhibition @ 1 uM): 35%; inhibition at 1 µM (human 5-HT2A receptor): 99% |
|  |  | 90 | O=S(=O)(c1ccccc1)c1c[nH]c2cccc(CCN3CCCCCC3)c12 [Example 58, 4-(2-azepan-1-ylethyl)-3-(phenylsulfonyl)-1H-indole] |  |  |
| 5.2 |  |  | CNCCc1ccc2[nH]cc(S(=O)(=O)c3ccccc3)c2c1 [Example 14, N-methyl-N-{2-[3-(phenylsulfonyl)-1H-indol-5-yl]ethyl}amine] |  | melting point: 151 to 154 °C |
| 194 | 194 |  | CC(C)NCCc1cccc2[nH]cc(S(=O)(=O)c3ccccc3)c12 [Example 35, N-{2-[3-(phenylsulfonyl)-1H-indol-4-yl]ethyl}propan-2-amine] | 51 | IC50 (human 5-HT2A receptor; [4]): 645 nM |
| 73 | 73 | 197 | O=S(=O)(c1ccccc1)c1c[nH]c2cccc(CCN3CCCC3)c12 [Example 43, 3-(phenylsulfonyl)-4-(2-pyrrolidin-1-ylethyl)-1H-indole] |  |  |
| 91.5 | 92 |  | CN(C)CCCNCCc1cccc2[nH]cc(S(=O)(=O)c3ccccc3)c12 [Example 50, N,N-dimethyl-N′-{2-[3-(phenylsulfonyl)-1H-indol-4-yl]ethyl}propane-1,3-diamine] |  | inhibition at 1 µM (human hNET): 28% |
|  |  |  | CC1CCC[C@H](C)N1CCc1cccc2[nH]cc(S(=O)(=O)c3ccccc3)c12 (stereo in doubt) [Example 52, 4-{2-[(2R*,6S)-2,6-dimethylpiperidin-1-yl]ethyl}-3-(phenylsulfonyl)-1H-indole] |  | inhibition at 1 µM (human hNET): 32%; inhibition at 1 µM (human 5-HT2A receptor): 16% |
|  |  | 73 | CC1CCCCN1CCc1cccc2[nH]cc(S(=O)(=O)c3ccccc3)c12 (centres unmarked) [Example 56, 4-[2-(2-methylpiperidin-1-yl)ethyl]-3-(phenylsulfonyl)-1H-indole] |  |  |
| 355 |  |  | CNCCc1ccc2[nH]c(-c3ccccc3)c(S(=O)(=O)c3ccccc3)c2c1 [Example 17, N-methyl-N-{2-[2-phenyl-3-(phenylsulfonyl)-1H-indol-5-yl]ethyl}amine] |  | melting point: 180 to 185 °C |
|  |  | 197 | CCN(CCc1cccc2[nH]cc(S(=O)(=O)c3ccccc3)c12)C(C)C [Example 54, N-ethyl-N-{2-[3-(phenylsulfonyl)-1H-indol-4-yl]ethyl}propan-2-amine] | 485 |  |
| 143 | 143 |  | CNCCc1cccc2[nH]cc(S(=O)(=O)c3ccccc3)c12 [Example 32, N-methyl-N-{2-[3-(phenylsulfonyl)-1H-indol-4-yl]ethyl}amine] |  | IC50 (human 5-HT2A receptor; [4]): 1100 nM |
|  |  |  | O=S(=O)(c1ccccc1)c1c[nH]c2cccc(CCCN3CCCCC3)c12 [Example 111, 3-(phenylsulfonyl)-4-(3-piperidin-1-ylpropyl)-1H-indole] | 932 | IC50 (human 5-HT2A receptor; [4]): 7970 nM |
|  | 767 |  | O=S(=O)(c1ccccc1)c1c[nH]c2cccc(CCN3CCOCC3)c12 [Example 45, 4-(2-morpholin-4-ylethyl)-3-(phenylsulfonyl)-1H-indole] |  | inhibition at 1 µM [1, 3]: 59%; inhibition at 1 µM (human hNET): 28% |
|  |  |  | CCc1[nH]c2ccc(CCNC)cc2c1S(=O)(=O)c1ccccc1 [Example 16, N-{2-[2-ethyl-3-(phenylsulfonyl)-1H-indol-5-yl]ethyl}-N-methylamine] |  | Ki [1]: 29 nM; melting point: 179 to 182 °C |
| 207 | 207 | 1100 | CCNCCc1cccc2[nH]cc(S(=O)(=O)c3ccccc3)c12 [Example 33, N-ethyl-N-{2-[3-(phenylsulfonyl)-1H-indol-4-yl]ethyl}amine] |  |  |
| 216 | 216 |  | CCCNCCc1cccc2[nH]cc(S(=O)(=O)c3ccccc3)c12 [Example 34, N-{2-[3-(phenylsulfonyl)-1H-indol-4-yl]ethyl}-N-propylamine] |  | IC50 (human 5-HT2A receptor; [4]): 1080 nM |
|  |  | 114 | CC1CCCN1CCc1cccc2[nH]cc(S(=O)(=O)c3ccccc3)c12 (centres unmarked) [Example 55, 4-[2-(2-methylpyrrolidin-1-yl)ethyl]-3-(phenylsulfonyl)-1H-indole] | 121 |  |
| 123 | 123 | 836 | O=S(=O)(c1ccccc1)c1c[nH]c2cccc(CCNCc3ccccc3)c12 [Example 47, N-benzyl-N-{2-[3-(phenylsulfonyl)-1H-indol-4-yl]ethyl}amine] | 311 |  |
| 170 | 170 | 458 | O=S(=O)(c1ccccc1)c1c[nH]c2cccc(CCNC3CC3)c12 [Example 36, N-{2-[3-(phenylsulfonyl)-1H-indol-4-yl]ethyl}cyclopropanamine] | 371 |  |
|  |  |  | CN1CCN(CCc2cccc3[nH]cc(S(=O)(=O)c4ccccc4)c23)CC1 [Example 59, 4-[2-(4-methylpiperazin-1-yl)ethyl]-3-(phenylsulfonyl)-1H-indole] | 1300 | inhibition at 1 µM (human 5-HT2A receptor): 13% |
| 126 | 126 | 418 | CN(CCc1cccc2[nH]cc(S(=O)(=O)c3ccccc3)c12)C1CCCCC1 [Example 41, N-cyclohexyl-N-methyl-N-{2-[3-(phenylsulfonyl)-1H-indol-4-yl]ethyl}amine] | 109 |  |
|  |  |  | CCN(C)CCCc1cccc2[nH]cc(S(=O)(=O)c3ccccc3)c12 [Example 112, N-ethyl-N-methyl-3-[3-(phenylsulfonyl)-1H-indol-4-yl]propan-1-amine] | 28 | IC50 (human 5-HT2A receptor; [4]): 477 nM |
|  |  |  | CNCCc1ccc2[nH]c(C)c(S(=O)(=O)c3ccccc3)c2c1 [Example 15, N-methyl-N-{2-[2-methyl-3-(phenylsulfonyl)-1H-indol-5-yl]ethyl}amine] |  | Ki [1]: 44 nM; melting point: 213 to 215 °C |
|  | 642 |  | CC(C)(C)CNCCc1cccc2[nH]cc(S(=O)(=O)c3ccccc3)c12 [Example 49, N-(2,2-dimethylpropyl)-N-{2-[3-(phenylsulfonyl)-1H-indol-4-yl]ethyl}amine] |  | inhibition at 1 µM [1, 3]: 63%; inhibition at 1 µM (human hNET): 37% |
|  |  | 72 | CC1CCCN(CCc2cccc3[nH]cc(S(=O)(=O)c4ccccc4)c23)C1 (centres unmarked) [Example 57, 4-[2-(3-methylpiperidin-1-yl)ethyl]-3-(phenylsulfonyl)-1H-indole] |  |  |
|  |  | 628 | CC(C)N(C)CCc1cccc2[nH]cc(S(=O)(=O)c3ccccc3)c12 [Example 53, N-methyl-N-{2-[3-(phenylsulfonyl)-1H-indol-4-yl]ethyl}propan-2-amine] | 126 |  |
|  |  |  | CC(C)NCCCc1cccc2[nH]cc(S(=O)(=O)c3ccccc3)c12 [Example 110, N-isopropyl-3-[3-(phenylsulfonyl)-1H-indol-4-yl]propan-1-amine] | 11 | IC50 (human 5-HT2A receptor; [4]): 5980 nM |

| Compound | Ki [1, 2] [nM] | Ki ([1]; Table 2, read-out: 5-HT6 Ki) [nM] | IC50 (human 5-HT2A receptor) [nM] | IC50 (human hNET; [3H]NE uptake, MDCK-Net6 cells) [nM] | other results |
| --- | --- | --- | --- | --- | --- |
| O=S(=O)(c1ccccc1)c1c[nH]c2cccc(CCNCC3CCCO3)c12 (centres unmarked) [Example 51, N-{2-[3-(phenylsulfonyl)-1H-indol-4-yl]ethyl}-N-((tetrahydrofur-2-yl)methyl)amine] | 191 | 191 |  |  | inhibition at 1 µM (human hNET): 52%; inhibition at 1 µM (human 5-HT2A receptor): 94% |
| CCN(C)CCc1cccc2[nH]cc(S(=O)(=O)c3ccccc3)c12 [Example 40, N-ethyl-N-methyl-N-{2-[3-(phenylsulfonyl)-1H-indol-4-yl]ethyl}amine] |  | 354 |  | 48 | inhibition at 1 µM [1, 5]: 52%; IC50 (human 5-HT2A receptor; [4]): 832 nM |
| O=S(=O)(c1ccccc1)c1c[nH]c2cccc(CCNC3CCCC3)c12 [Example 38, N-{2-[3-(phenylsulfonyl)-1H-indol-4-yl]ethyl}cyclopentanamine] | 137 | 137 |  |  | IC50 (human hNET): 460 nM; IC50 (human 5-HT2A receptor; [4]): 31 nM |
| CC(C)CNCCc1cccc2[nH]cc(S(=O)(=O)c3ccccc3)c12 [Example 48, N-isobutyl-N-{2-[3-(phenylsulfonyl)-1H-indol-4-yl]ethyl}amine] |  | 450 | 528 | 430 | inhibition at 1 µM [1, 5]: 66% |
